From patent US11254668B2, “Pyrazolo[1,5-A]pyrazin-4-yl and related derivatives” (Pfizer Inc., priority 2017, dated 2022) come the findings set out here.

Structures are written as SMILES.

Common to all, as to format: biochemical
One assay has as its target TYK2 (Homo sapiens (Human), UniProt P29597). The assay is described as follows: JAK Caliper Enzyme Assay at 1 mM ATP, TYK2. In a few lines:
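Peptide phosphorylation by recombinant human kinase domain, 1 mM ATP, room temperature, EDTA-terminated, detected by microfluidic mobility shift; % effect normalised to DMSO baseline.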

For another assay, the target named is JAK1 (Homo sapiens (Human), UniProt P23458). The assay is described as follows: JAK Caliper Enzyme Assay at 1 mM ATP, JAK1. In a few lines: (§1)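 Recombinant human kinase domains phosphorylated a fluorescent synthetic peptide at room temperature, with enzyme level and time tuned to 20% to 30% conversion; EDTA stop buffer ended reactions. Mobility-shift separation gave percent product from peak heights, normalised to DMSO and positive controls, and IC50s came from concentration–effect curves.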

In another assay the target is JAK2 (Homo sapiens (Human), UniProt O60674). The assay is described as follows: JAK Caliper Enzyme Assay at 1 mM ATP, JAK2. On the procedure:
Compounds of the invention were evaluated by in vitro methods to determine their respective ability to inhibit the JAK kinases (TYK2, JAK1, JAK2, JAK3).
The human JAK inhibitory activity was determined by using a microfluidic assay to monitor phosphorylation of a synthetic peptide by the recombinant human kinase domain of each of the four members of the JAK family, JAK1, JAK2, JAK3 and TYK2. […] Each assay condition was optimized for enzyme concentration and room temperature incubation time to obtain a conversion rate of 20% to 30% phosphorylated peptide product. Reactions were terminated by the addition of stop buffer containing EDTA. Utilizing the LabChip 3000 mobility shift technology (Caliper Life Science), each assay reaction was sampled to determine the level of phosphorylation. This technology is separation-based, allowing direct detection of fluorescently labeled substrates and products. Separations are controlled by a combination of vacuum pressure and electric field strength optimized for each peptide substrate.
JAK Caliper Enzyme Assay at 1mM ATP
Compounds were added to a 384-well plate.
The data was collected using the HTS Well Analyzer software from Caliper Life Sciences. The data output for data analysis is the percent product converted calculated on peak height (Equation 1). % product converted=100*((product)/(product+substrate)) Equation 1: […]
The percent effect at each compound concentration was calculated based on the positive and negative control well contained within each assay plate (Equation 2). […] The negative control wells contained DMSO alone (at the same concentration as the compound wells) that was used to set the baseline activity in the assay (i.e., uninhibited JAK1, JAK2, JAK3 or TYK2). % effect=100*([…](positive control-negative control)) Equation 2: […]
The percent effect was plotted against the compound concentration compound.

The target in another assay is JAK3 (Homo sapiens (Human), UniProt P52333). The assay is described as follows: JAK Caliper Enzyme Assay at 1 mM ATP, JAK3. The gist of the method:
as §1

Sequence of JAK2 (O60674 849-1124): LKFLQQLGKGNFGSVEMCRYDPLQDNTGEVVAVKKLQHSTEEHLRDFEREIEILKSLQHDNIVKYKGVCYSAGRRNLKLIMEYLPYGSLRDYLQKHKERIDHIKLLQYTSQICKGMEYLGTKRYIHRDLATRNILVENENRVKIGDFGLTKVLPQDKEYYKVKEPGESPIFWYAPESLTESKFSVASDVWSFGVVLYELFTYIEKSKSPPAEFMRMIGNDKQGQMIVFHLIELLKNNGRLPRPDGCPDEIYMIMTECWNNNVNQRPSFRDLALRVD
Sequence of JAK3 (P52333 822-1111): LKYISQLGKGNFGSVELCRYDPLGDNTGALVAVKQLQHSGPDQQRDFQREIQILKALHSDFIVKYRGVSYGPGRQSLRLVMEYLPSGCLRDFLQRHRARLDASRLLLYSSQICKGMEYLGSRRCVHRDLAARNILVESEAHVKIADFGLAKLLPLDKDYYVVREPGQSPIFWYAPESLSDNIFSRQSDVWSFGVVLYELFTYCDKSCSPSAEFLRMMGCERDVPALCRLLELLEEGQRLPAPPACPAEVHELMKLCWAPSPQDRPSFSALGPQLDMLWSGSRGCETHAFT
Sequence of TYK2 (P29597 897-1176): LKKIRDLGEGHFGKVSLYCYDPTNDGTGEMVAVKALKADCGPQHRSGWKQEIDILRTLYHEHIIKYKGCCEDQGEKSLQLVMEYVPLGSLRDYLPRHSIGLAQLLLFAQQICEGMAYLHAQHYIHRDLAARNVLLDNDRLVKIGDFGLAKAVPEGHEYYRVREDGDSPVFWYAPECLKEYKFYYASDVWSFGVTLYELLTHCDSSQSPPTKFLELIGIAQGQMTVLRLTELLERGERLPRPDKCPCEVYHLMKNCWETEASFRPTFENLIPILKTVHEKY
Sequence of JAK1 (P23458 875-1153): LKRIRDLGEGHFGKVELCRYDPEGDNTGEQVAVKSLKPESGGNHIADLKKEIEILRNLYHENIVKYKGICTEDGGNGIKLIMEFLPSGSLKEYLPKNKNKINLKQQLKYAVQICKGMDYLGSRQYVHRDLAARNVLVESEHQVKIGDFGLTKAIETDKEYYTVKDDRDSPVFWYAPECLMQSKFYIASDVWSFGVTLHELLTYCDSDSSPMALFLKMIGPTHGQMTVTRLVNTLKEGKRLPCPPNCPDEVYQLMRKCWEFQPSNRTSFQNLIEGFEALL

`Cc1cc(-c2cc3ncccc3c(-c3ccn([C@]4(CC#N)C[C@H](C#N)C4)n3)n2)n[nH]1` [Example 44, cis-3-(cyanomethyl)-3-{3-[7-(5-methyl-1H-pyrazol-3-yl)-1,6-naphthyridin-5-yl]-1H-pyrazol-1-yl}cyclobutanecarbonitrile]: the IC50 at TYK2 is 7 nM; at JAK1, 66 nM; on JAK2 it was 18 nM; at JAK3 it was 2880 nM.
The corresponding values for `Cc1cc(-c2cc3ncccc3c(-c3ccn([C@]4(CC#N)C[C@](C)(C#N)C4)n3)n2)n[nH]1` [Example 45, cis-3-(cyanomethyl)-1-methyl-3-{3-[7-(5-methyl-1H-pyrazol-3-yl)-1,6-naphthyridin-5-yl]-1H-pyrazol-1-yl}cyclobutanecarbonitrile] are 33 nM, 739 nM, 125 nM and more than 10000 nM.
The corresponding values for `Cc1cc(-c2cc3ncccc3c(-c3ccn([C@]4(CC#N)C[C@@](C)(C#N)C4)n3)n2)n[nH]1` [Example 46, trans-3-(cyanomethyl)-1-methyl-3-{3-[7-(5-methyl-1H-pyrazol-3-yl)-1,6-naphthyridin-5-yl]-1H-pyrazol-1-yl}cyclobutanecarbonitrile] are 867 nM, 9680 nM, 2770 nM and more than 10000 nM.
On the same counts, the results for `CCN1CC(CC#N)(n2ccc(-c3nc(-c4cc(CO)[nH]n4)cc4ncccc34)n2)C1` [Example 47, [1-ethyl-3-(3-{7-[5-(hydroxymethyl)-1H-pyrazol-3-yl]-1,6-naphthyridin-5-yl}-1H-pyrazol-1-yl)azetidin-3-yl]acetonitrile] are 254 nM, 7720 nM, 1940 nM and more than 10000 nM.
In the case of `N#CCC1(n2ccc(-c3nc(-c4cc(CO)[nH]n4)cc4ncccc34)n2)CC(C#N)C1` (stereo not drawn) [Example 48, trans-3-(cyanomethyl)-3-(3-{7-[5-(hydroxymethyl)-1H-pyrazol-3-yl]-1,6-naphthyridin-5-yl}-1H-pyrazol-1-yl)cyclobutanecarbonitrile], the IC50 on TYK2 is 15 nM; on JAK1, 292 nM; at JAK2, 73 nM; at JAK3, more than 10000 nM.
On the same counts, the results for `N#CC[C@]1(n2ccc(-c3nc(-c4cc(CO)[nH]n4)cc4ncccc34)n2)C[C@@H](C#N)C1` [Example 49, cis-3-(cyanomethyl)-3-(3-{7-[5-(hydroxymethyl)-1H-pyrazol-3-yl]-1,6-naphthyridin-5-yl}-1H-pyrazol-1-yl)cyclobutanecarbonitrile] are 7 nM, 42 nM, 16 nM and 2320 nM.
As to `CO[C@H]1C[C@](CC#N)(n2ccc(-c3nc(-c4cc(CO)n[nH]4)cc4ncccc34)n2)C1` [Example 50, [trans-1-(3-{7-[3-(hydroxymethyl)-1H-pyrazol-5-yl]-1,6-naphthyridin-5-yl}-1H-pyrazol-1-yl)-3-methoxycyclobutyl]acetonitrile], the IC50 on TYK2 is 59 nM; on JAK1, 2750 nM; on JAK2 it was 861 nM; on JAK3, more than 10000 nM.
On the same counts, the results for `CO[C@H]1C[C@@](CC#N)(n2ccc(-c3nc(-c4cc(CO)n[nH]4)cc4ncccc34)n2)C1` [Example 51, [cis-1-(3-{7-[3-(hydroxymethyl)-1H-pyrazol-5-yl]-1,6-naphthyridin-5-yl}-1H-pyrazol-1-yl)-3-methoxycyclobutyl]acetonitrile] are 45 nM, 1910 nM, 509 nM and more than 10000 nM.
On the same counts, the results for `CO[C@H]1C[C@@](CC#N)(n2ccc(-c3nc(-c4cc(N)[nH]n4)cc4ncccc34)n2)C1` [Example 52, (cis-1-{3-[7-(5-amino-1H-pyrazol-3-yl)-1,6-naphthyridin-5-yl]-1H-pyrazol-1-yl}-3-methoxycyclobutyl)acetonitrile] are 19 nM, 379 nM, 235 nM and more than 10000 nM.
The corresponding values for `CO[C@H]1C[C@](CC#N)(n2ccc(-c3nc(-c4cc(N)[nH]n4)cc4ncccc34)n2)C1` [Example 53, (trans-1-{3-[7-(5-amino-1H-pyrazol-3-yl)-1,6-naphthyridin-5-yl]-1H-pyrazol-1-yl}-3-methoxycyclobutyl)acetonitrile] are 26 nM, 654 nM, 396 nM and more than 10000 nM.
Consider `Cn1nccc1-c1cc2ncccc2c(-c2ccn(C3(CC#N)CN(CC(F)(F)F)C3)n2)n1` [Example 54, [3-{3-[7-(1-methyl-1H-pyrazol-5-yl)-1,6-naphthyridin-5-yl]-1H-pyrazol-1-yl}-1-(2,2,2-trifluoroethyl)azetidin-3-yl]acetonitrile], for which the IC50 at TYK2 is 214 nM; at JAK1, 2300 nM; at JAK2, 2100 nM; at JAK3, more than 10000 nM.
On the same counts, the results for `Cn1ccc(-c2cc3ncccc3c(-c3ccn(C4(CC#N)CN(CC(F)(F)F)C4)n3)n2)n1` [Example 55, [3-{3-[7-(1-methyl-1H-pyrazol-3-yl)-1,6-naphthyridin-5-yl]-1H-pyrazol-1-yl}-1-(2,2,2-trifluoroethyl)azetidin-3-yl]acetonitrile] are 156 nM, 8870 nM, 2560 nM and more than 10000 nM.
`CS(=O)(=O)N1CC(CC#N)(n2ccc(-c3nc(-c4ccn(C5COC5)n4)cc4ncccc34)n2)C1` [Example 56, [1-(methylsulfonyl)-3-(3-{7-[1-(oxetan-3-yl)-1H-pyrazol-3-yl]-1,6-naphthyridin-5-yl}-1H-pyrazol-1-yl)azetidin-3-yl]acetonitrile]: the IC50 at TYK2 was 225 nM; at JAK1, more than 10000 nM; on JAK2, 1480 nM; at JAK3, more than 10000 nM.
Consider `N#CCC1(n2ccc(-c3nc(-c4ccn(C5COC5)n4)cc4ncccc34)n2)CN(CC(F)(F)F)C1` [Example 57, [3-(3-{7-[1-(oxetan-3-yl)-1H-pyrazol-3-yl]-1,6-naphthyridin-5-yl}-1H-pyrazol-1-yl)-1-(2,2,2-trifluoroethyl)azetidin-3-yl]acetonitrile], for which the IC50 on TYK2 is 257 nM; on JAK1, more than 10000 nM; at JAK2, 2350 nM; at JAK3, more than 10000 nM.
With `Cc1cc(-c2cc3ncccc3c(-c3ccn([C@]4(CC#N)C[C@@H](C#N)C4)n3)n2)nn1C` [Example 58, trans-3-(cyanomethyl)-3-{3-[7-(1,5-dimethyl-1H-pyrazol-3-yl)-1,6-naphthyridin-5-yl]-1H-pyrazol-1-yl}cyclobutanecarbonitrile], the IC50 on TYK2 was 34 nM; at JAK1, 7430 nM; at JAK2, 510 nM; at JAK3, more than 10000 nM.
On the same counts, the results for `Cc1cc(-c2cc3ncccc3c(-c3ccn([C@]4(CC#N)C[C@H](C#N)C4)n3)n2)nn1C` [Example 59, cis-3-(cyanomethyl)-3-{3-[7-(1,5-dimethyl-1H-pyrazol-3-yl)-1,6-naphthyridin-5-yl]-1H-pyrazol-1-yl}cyclobutanecarbonitrile] are 16 nM, 880 nM, 92 nM and more than 10000 nM.
The corresponding values for `Cn1nc(CO)cc1-c1cc2ncccc2c(-c2ccn([C@]3(CC#N)C[C@@H](C#N)C3)n2)n1` [Example 60, trans-3-(cyanomethyl)-3-(3-{7-[3-(hydroxymethyl)-1-methyl-1H-pyrazol-5-yl]-1,6-naphthyridin-5-yl}-1H-pyrazol-1-yl)cyclobutanecarbonitrile] are 190 nM, 3850 nM, 915 nM and more than 10000 nM.
Turning to `Cn1nc(CO)cc1-c1cc2ncccc2c(-c2ccn([C@]3(CC#N)C[C@H](C#N)C3)n2)n1` [Example 61, cis-3-(cyanomethyl)-3-(3-{7-[3-(hydroxymethyl)-1-methyl-1H-pyrazol-5-yl]-1,6-naphthyridin-5-yl}-1H-pyrazol-1-yl)cyclobutanecarbonitrile], the half-inhibitory concentration (IC50) at TYK2 was 39 nM; at JAK1, 521 nM; at JAK2 it was 123 nM; at JAK3 it was more than 10000 nM.
